# Columns and labels:
# [1] = Clearance rates of carprofen-genus enantiomers; conditions: in vivo
# Source text: The above-recited ranges of dosage amounts, which are also recited elsewhere herein, are for racemic mixtures of compounds of Formula (I) having a chiral carbon, or for single compounds of Formula (I) where no chiral carbon atom is present. As will be appreciated by the person of ordinary skill in this art, i.e., a practicing veterinarian or a person with an advanced degree and experience in animal health issues, where other than a racemic mixture of compounds of Formula (I) is involved, the chondroprotective therapeutically effective amount will vary. For example, if 85% of the mixture is (S)-enantiomer, that will ordinarily tend to reduce the necessary dosage. […] However, the degree of difference between the activities of the two enantiomers must also take into account other differences, especially differences in pharmacokinetics between the two enantiomers, in determining the proper dosage. […] This, in turn, will have a calculable impact on the amount of active compound to be administered. Ordinarily, such determinations will be made on a case-by-case basis by the artisan, but these are well within the ordinary skill of the art, as is instituting the methods whereby data necessary for the supporting calculations may be obtained.
# [2] = in vivo, po
# Experimental: Accordingly, a useful controlled release dosage form of carprofen in accordance with the present invention is one which maintains a carprofen plasma level greater than 2 μg/mL for most of the day after a single oral dose at 2 mg/lb.
# Immediate release carprofen dosage forms containing doses of 1.8, 1.6, and 1.4 mg/lb maintain a plasma carprofen concentration above 10 μg/mL for 9.5 hrs, 8.5 hrs, and 7.5 hrs, respectively. Preferred 1.8 mg/lb oral controlled release carprofen dosage forms maintain a plasma carprofen concentration above 10 μg/mL for greater than 9.5 hrs. Likewise, the threshold durations for 1.6 mg/lb and 1.4 mg/lb doses are 8.5 hrs and 7.5 hrs, respectively. The performance characteristics for preferred oral controlled release carprofen dosage forms at doses higher than 2 mg/lb or less than 1.4 mg/lb can be similarly calculated, assuming linear pharmacokinetics. More preferred oral controlled release carprofen dosage forms are those which maintain a plasma carprofen concentration greater than 10 μg/mL for a period of time greater than or equal to that observed when an immediate release carprofen dosage form is dosed at any higher dose. […]
# [3] = tested on: cultured osteoarthritic mammal chondrocytes / cartilage explants; conditions: cited from earlier work
# articular cartilage = conditions: cited from earlier work
# [4] = tested on: atrophied mammal articular cartilage; conditions: in vivo; cited from earlier work
# [5] = tested on: cartilage homeostasis in osteoarthritic joints; conditions: compared with control joints; cited from earlier work
molecule,measurement,setting,value
"C[C@H](C(=O)O)c1ccc2c(c1)[nH]c1ccc(Cl)cc12 (single isomer, unassigned) [(+)(S) enantiomer]","clearance rates, (+)(S) versus (−)(R) enantiomer",[1],significant difference in clearance rates
"C[C@@H](C(=O)O)c1ccc2c(c1)[nH]c1ccc(Cl)cc12 (single isomer, unassigned) [(−)(R) enantiomer]","clearance rates, (+)(S) versus (−)(R) enantiomer",[1],significant difference in clearance rates
"CC(C(=O)O)c1ccc2c(c1)[nH]c1ccc(Cl)cc12 (stereo not drawn) [carprofen, 6-chloro-α-methyl-9H-carbazole-2-acetic acid]",time plasma carprofen levels are maintained above approximately 10 μg/mL,[2],10.5 h
same,cartilage GAG synthesis,[3]; carprofen concentrations of 1 and 10,selectively stimulating new cartilage GAG synthesis
same,cartilage proteoglycan breakdown,[3]; carprofen concentrations of 1 and 10 μL/ml,without any direct effect on cartilage proteoglycan breakdown
Pentosan polysulfate [PPS],articular cartilage damage,articular cartilage; gross and histologic evaluation,significantly decrease articular cartilage damage
same,articular cartilage proteoglycan content,articular cartilage; in vivo,maintenance of normal articular cartilage proteoglycan content
hyaluronic acid [HA],effect on atrophied articular cartilage,[4],chondrostabilizing effect
polysulfated glycosaminoglycan [PSGAG],microscopic structural alteration,[5],decreased microscopic structural alteration
same,proteinase activity,[5],decreased proteinase activity
same,proteoglycan in cartilage,[5],retention of proteoglycan in cartilage

# Source: patent publication US6506785B2, “Treating or preventing the early stages of degeneration of articular cartilage or subchondral bone in mammals using carprofen and derivatives” (Pfizer, Inc., priority 1998, dated 2003)
